Key:
α-synuclein aggregates [1] = biological target: T1, α-synuclein aggregates (Homo sapiens, UniProt P37840); assay: In vitro fluorescence microscope measurement, amygdala sections of DLB patient brain; design: α-synuclein aggregates formed in the brain of the DLB patient; from tissue; host or cells: post-mortem human brain: amygdala of DLB patient (sections or homogenate); cerebellum of MSA patient; conditions: 30 μM test compound
Text: (§1) Postmortem human brains were obtained in autopsies carried out with respect to a patient with dementia with Lewy bodies (DLB) and a patient with Alzheimer's disease (AD). In a cryostat (HM560, Carl Zeiss), frozen tissue from the DLB patient was sliced into sections each having a thickness of 20 μm. Brain tissue from the AD patient was fixed in 10% neutral buffered formalin, embedded in a paraffin block, and sliced into sections each having a thickness of 6 μm.
Postfixed fresh frozen sections of amygdala tissue obtained from the brain of the DLB patient and deparaffinized sections of formalin-fixed paraffin-embedded middle frontal gyrus tissue obtained from the brain of the AD patient were used. Each brain section and a 30 μM test compound were incubated in a 50% ethanol solution at room temperature for 30 minutes. Thereafter, the section was washed with a 50% ethanol solution for 5 minutes and with ultrapure water for 3 minutes. This washing was carried out twice. After the section was mounted in a mounting medium (VECTASHIELD H-1000, Vector Laboratories), an image of a lesion-enriched area on the section was obtained with use of a fluorescence microscope (DM4000, Leica, excitation wavelength: 391 nm to 437 nm). In FIG. 1, each arrowhead indicates fluorescence from the compound binding to α-synuclein aggregates in the brain of the DLB patient, each arrow indicates fluorescence from the compound binding to amyloid-β aggregates in the brain of the AD patient, and an asterisk indicates fluorescence from the compound binding to tau aggregates in the brain of the AD patient. The fluorescence intensities of lesion-enriched areas and lesion-free areas (background) were quantified with use of analysis software (Image J). Note that SPAL-T-05 and SPAL-T-06 were each used as the test compound. Note also that BF-227 (2-(2-[2-dimethylaminothiazol-5-yl]ethenyl)-6-(2-[fluoro]ethoxy)benzoxazole (catalog No.: NP039-0)) and PBB3 (2-((1E,3E)-4-(6-(methylamino)pyridin-3-yl)buta-1,3-dienyl)benzo[d]thiazol-6-ol) (catalog No.: NP039-0), each available from NARD INSTITUTE, LTD., were each used as a control compound.

α-synuclein lesion = biological target: T2, α-synuclein lesion (Mus musculus, UniProt O55042); assay: In vivo two-photon laser scanning fluorescence microscopy of α-synuclein fibril-inoculated model mouse; conditions: 50 μl DMSO solution containing 0.1% compound, i.p.; excitation 900 nm
T2 construct: from tissue; host or cells: brain of C57/BL/6 mouse inoculated in the striatum with recombinant (E. coli) mouse α-synuclein fibrils; sections or living animal
Protocol: First, mouse α-synuclein was expressed in and extracted from E. coli as a recombinant protein, and then incubated in vitro to form insoluble α-synuclein aggregates. The α-synuclein aggregates were then inoculated into the striatum of a mouse. […] Note that the inoculation of the α-synuclein aggregates into the striatum of the mouse was carried out in the following manner. First, hair on the head of a 9-week-old C57/BL/6 male mouse which had been anesthetized with 1.5% (v/v) isoflurane was removed, and the scalp was disinfected with isodine, followed by application of xylocaine and incision in the scalp to expose the skull. Then, a hole was drilled in the skull at a position of 0.05 mm posterior to the bregma and 2 mm lateral to the midline, and 3 μl of an α-synuclein fibril solution (mouse α-synuclein fibril (4 mg/ml) in saline) was injected into a position […] ventral to the brain surface with use of a glass pipette. The scalp was then returned and sutured.
A model mouse was anesthetized with 1.5% (v/v) isoflurane 6 or more weeks after inoculation of an α-synuclein fibril solution. Then, a cranial window was placed on the model mouse in accordance with the Seylaz-Tomita method (Tomita et al. J Cereb Blood Flow Metab 25, 858-67, 2005). Two or more weeks after the placement of the cranial window, the mouse was anesthetized with 1.5% (v/v) isoflurane, and then 50 μl of a DMSO solution containing 0.1% BF-227, PBB3, SPAL-T-05, or SPAL-T-06 was intraperitoneally administered to the mouse. Thirty minutes after the administration, the mouse was fixed under a two-photon laser fluorescence microscope, 100 μl of physiological saline containing 5 mM Sulforhodamine 101 was intraperitoneally administered to the mouse, and then intravital two-photon fluorescence imaging was carried out at an excitation wavelength of 900 nm. Detection wavelengths for BF-227, PBB3, SPAL-T-05, and SPAL-T-06 were set at 500 nm to 550 nm, and a detection wavelength for Sulforhodamine 101 was set at 573 nm to 648 nm. In FIG. 4, each arrowhead indicates a blood vessel, and each arrow indicates fluorescence from the compound binding to an α-synuclein lesion.

[2] = test system: tau aggregates or amyloid-β aggregates; assay: In vitro fluorescence microscope measurement, middle frontal gyrus sections of AD patient brain; design: species or system human; conditions: 30 μM compound
Text: as §1
Postfixed fresh frozen sections of amygdala tissue obtained from the brain of the DLB patient and deparaffinized sections of formalin-fixed paraffin-embedded middle frontal gyrus tissue obtained from the brain of the AD patient were used. […] After the section was mounted in a mounting medium (VECTASHIELD H-1000, Vector Laboratories), an image of a lesion-enriched area on the section was obtained with use of a fluorescence microscope (DM4000, Leica, excitation wavelength: 391 nm to 437 nm). In FIG. 1, each arrowhead indicates fluorescence from the compound binding to α-synuclein aggregates in the brain of the DLB patient, each arrow indicates fluorescence from the compound binding to amyloid-β aggregates in the brain of the AD patient, and an asterisk indicates fluorescence from the compound binding to tau aggregates in the brain of the AD patient. […]

α-synuclein aggregates [3] = biological target: T1, α-synuclein aggregates; conditions: background statement, cited from earlier work

| SMILES | binding to α-synuclein aggregates formed in the brain of the DLB patient (fluorescence) (α-synuclein aggregates [1]; 50% ethanol, room temperature, 30 minutes, amygdala sections) | binding selectivity: α-synuclein aggregates (DLB brain) versus tau aggregates or amyloid-β aggregates (AD brain) (α-synuclein aggregates [1]; fluorescence of lesion-enriched vs lesion-free areas) | detection of / binding to α-synuclein lesions in living mouse brain (two-photon fluorescence) (α-synuclein lesion) | binding to aggregates in the brain of the AD patient (fluorescence) [2] | binding selectivity with respect to the α-synuclein aggregates (α-synuclein aggregates [3]; binds to amyloid-β aggregates) | binding affinity with respect to the α-synuclein aggregates (α-synuclein aggregates [3]) |
| --- | --- | --- | --- | --- | --- | --- |
| CN(C)c1ncc(C=Cc2nc3ccc(OCCF)cc3o2)s1 [BF-227, 2-(2-[2-dimethylaminothiazol-5-yl]ethenyl)-6-(2-[fluoro]ethoxy)benzoxazole, reference compound] | weaker than that of each of SPAL-T-06 and SPAL-T-05 | low binding selectivity | no α-synuclein lesion was detected | mainly bound to the amyloid-β aggregates |  |  |
| CNc1ccc(/C=C/C=C/c2nc3ccc(O)cc3s2)cn1 [PBB3, 2-((1E,3E)-4-(6-(methylamino)pyridin-3-yl)buta-1,3-dienyl)benzo[d]thiazol-6-ol, reference compound] |  |  | no α-synuclein lesion was detected |  |  |  |
| CN(C)c1ncc(C=Cc2nc3ccc(OCCF)cc3o2)s1 [[^11C]BF-227] |  |  |  |  | low binding selectivity | insufficient binding affinity |

From US12630544B2, “Compound, α-synuclein aggregate binder, and use thereof” (NATIONAL INSTITUTES FOR QUANTUM SCIENCE AND TECHNOLOGY, priority 2020, dated 2026)
